≈ marks a conversion by molar mass, not a printed value. Calls of active or inactive are those of the source. No cut-off for these calls is given here. Bridge positions count the residues as written; N and C are the ends. Square brackets hold non-standard residues; d marks the D form. Peptide text beside a SMILES is read from it. * marks the point of attachment. Heptanoyl(6-Me) = CC(C)CCCCC(=O)*; Dab = NCC[C@H](N)C(=O)O; Dap = NC[C@H](N)C(=O)O
Assays:
[1] = system: Klebsiella pneumoniae; assay: Antibacterial activity against carbapenem-resistant Klebsiella pneumoniae ATCC BAA-1705 infected in ICR mouse model assessed as survival rate at 2 mg/kg, iv administered at 1 and 6 hrs post-infection and measured after 7 days relative to control; format: functional; settings: time 7 day
[2] = AUC (0 to infinity) in male Sprague-Dawley rat at 3 mg/kg, iv measured after 24 hrs by LC-MS/MS analysis; format: ADME, organism-based; settings: in vivo
[3] = system: Acinetobacter baumannii; assay: Antibacterial activity against carbapenem-resistant Acinetobacter baumannii clinical isolate ets104 assessed as inhibition of bacterial growth incubated for 24 hrs by CLSI protocol based broth microdilution method; format: functional
[4] = system: Pseudomonas aeruginosa; assay: Antibacterial activity against carbapenem-resistant Pseudomonas aeruginosa clinical isolate ets49 assessed as inhibition of bacterial growth incubated for 24 hrs by CLSI protocol based broth microdilution method; format: functional
[5] = system: Pseudomonas aeruginosa; assay: Potentiation of rifampicin induced antibacterial activity against Pseudomonas aeruginosa ATCC 27853 assessed as rifampicin MIC at 0.25 microg/ml incubated 24 hrs by cation adjusted Mueller-Hinton broth based method; format: functional; settings: dose 0.25 µg/ml
[6] = system: Escherichia coli; assay: Antibacterial activity against carbapenem-resistant Escherichia coli clinical isolate 231016w014 assessed as inhibition of bacterial growth incubated for 24 hrs by CLSI protocol based broth microdilution method; format: functional
[7] = system: Pseudomonas aeruginosa; assay: Potentiation of rifampicin induced antibacterial activity against Pseudomonas aeruginosa ATCC 27853 assessed as rifampicin MIC at 0.125 microg/ml incubated 24 hrs by cation adjusted Mueller-Hinton broth based method; format: functional; settings: dose 0.125 µg/ml
[8] = Nephrotoxicity against Sprague-Dawley rat assessed as increase in CRE level at 4 mg/kg, iv administered for 7 days by fully automated biochemistry analyzer XR200PLUS; format: toxicity, organism-based; settings: in vivo, 168 h, time 7 day
[9] = system: Klebsiella pneumoniae; assay: Antibacterial activity against carbapenem-resistant Klebsiella pneumoniae clinical isolate ets78 assessed as inhibition of bacterial growth incubated for 24 hrs by CLSI protocol based broth microdilution method; format: functional
[10] = system: Klebsiella pneumoniae; assay: Antibacterial activity against carbapenem-resistant Klebsiella pneumoniae ATCC BAA-1705 infected in ICR mouse model administered intravenously with compound at 1 and 6 hrs post-infection and measured after 7 days; format: functional; settings: ATCC BAA-1705, 168 h, route iv, time 7 day
[11] = system: Pseudomonas aeruginosa; assay: Potentiation of rifampicin induced antibacterial activity against Pseudomonas aeruginosa ATCC 27853 assessed as rifampicin MIC at 0.06 microg/ml incubated 24 hrs by cation adjusted Mueller-Hinton broth based method; format: functional; settings: dose 0.06 µg/ml
[12] = system: Klebsiella pneumoniae; assay: Antibacterial activity against carbapenem-resistant Klebsiella pneumoniae clinical isolate ets45 assessed as inhibition of bacterial growth incubated for 24 hrs by CLSI protocol based broth microdilution method; format: functional
[13] = Nephrotoxicity against Sprague-Dawley rat assessed as increase in BUN level at 4 mg/kg, iv administered for 7 days by fully automated biochemistry analyzer XR200PLUS; format: toxicity, organism-based; settings: in vivo, 168 h, time 7 day
[14] = system: Pseudomonas aeruginosa; assay: Potentiation of rifampicin induced antibacterial activity against Pseudomonas aeruginosa ATCC 27853 assessed as rifampicin MIC at 0.03 microg/ml incubated 24 hrs by cation adjusted Mueller-Hinton broth based method; format: functional; settings: dose 0.03 µg/ml
[15] = system: Acinetobacter baumannii; assay: Antibacterial activity against carbapenem-resistant Acinetobacter baumannii NCTC13304 infected in ICR mouse model assessed as survival rate at 3 mg/kg, iv administered at 1 and 6 hrs post-infection and measured after 7 days relative to control; format: functional; settings: NCTC13304, 168 h, time 7 day
[16] = system: Pseudomonas aeruginosa; assay: Antibacterial activity against carbapenem-resistant Pseudomonas aeruginosa clinical isolate ets38 assessed as inhibition of bacterial growth incubated for 24 hrs by CLSI protocol based broth microdilution method; format: functional
[17] = system: Escherichia coli; assay: Antibacterial activity against carbapenem-resistant Escherichia coli clinical isolate 231112E006B assessed as inhibition of bacterial growth incubated for 24 hrs by CLSI protocol based broth microdilution method; format: functional
[18] = Toxicity in ICR mouse assessed as adverse effect at 15.4 mg/kg, iv administered as single dose; format: organism-based; settings: in vivo
[19] = system: Pseudomonas aeruginosa; assay: Antibacterial activity against Pseudomonas aeruginosa ATCC 27853 assessed as decrease in bacterial concentration at 0.5 to 2 times of MIC measured after 1 hrs by time-kill kinetics assay; format: functional, organism-based
[20] = system: Klebsiella pneumoniae; assay: Antibacterial activity against carbapenem-resistant Klebsiella pneumoniae clinical isolate KPN+19-15 infected in ICR mouse model administered intravenously with compound at 1 and 6 hrs post-infection and measured after 7 days; format: functional; settings: 168 h, route iv, time 7 day
[21] = C0 in male Sprague-Dawley rat at 3 mg/kg, iv measured after 24 hrs by LC-MS/MS analysis; format: ADME, organism-based; settings: in vivo
[22] = system: Pseudomonas aeruginosa; assay: Antibacterial activity against Pseudomonas aeruginosa ATCC 27853 assessed as inhibition of bacterial growth incubated for 16 to 20 hrs by CLSI protocol based broth microdilution method; format: functional; settings: time 16-20 hrs
[23] = system: Pseudomonas aeruginosa; assay: Antibacterial activity against carbapenem-resistant Pseudomonas aeruginosa clinical isolate ets84 assessed as inhibition of bacterial growth incubated for 24 hrs by CLSI protocol based broth microdilution method; format: functional
[24] = system: Escherichia coli; assay: Antibacterial activity against Escherichia coli ATCC BAA-2523 infected in ICR mouse model administered intravenously with compound at 1 and 6 hrs post-infection and measured after 7 days; format: functional; settings: ATCC BAA-2523, 168 h, route iv, time 7 day
[25] = system: Pseudomonas aeruginosa; assay: Antibacterial activity against carbapenem-resistant Pseudomonas aeruginosa clinical isolate ets22 assessed as inhibition of bacterial growth incubated for 24 hrs by CLSI protocol based broth microdilution method; format: functional
[26] = system: Pseudomonas aeruginosa; assay: Antibacterial activity against carbapenem-resistant Pseudomonas aeruginosa clinical isolate ets104 assessed as inhibition of bacterial growth incubated for 24 hrs by CLSI protocol based broth microdilution method; format: functional
[27] = system: Klebsiella pneumoniae; assay: Antibacterial activity against carbapenem-resistant Klebsiella pneumoniae clinical isolate ets75 assessed as inhibition of bacterial growth incubated for 24 hrs by CLSI protocol based broth microdilution method; format: functional
[28] = system: Pseudomonas aeruginosa; assay: Antibacterial activity against carbapenem-resistant Pseudomonas aeruginosa clinical isolate ets55 assessed as inhibition of bacterial growth incubated for 24 hrs by CLSI protocol based broth microdilution method; format: functional
[29] = system: Pseudomonas aeruginosa; assay: Antibacterial activity against carbapenem-resistant Pseudomonas aeruginosa clinical isolate ets83 assessed as inhibition of bacterial growth incubated for 24 hrs by CLSI protocol based broth microdilution method; format: functional
[30] = system: Acinetobacter baumannii; assay: Antibacterial activity against carbapenem-sensitive Acinetobacter baumannii clinical isolate 19-1 assessed as inhibition of bacterial growth incubated for 16 to 20 hrs by CLSI protocol based broth microdilution method; format: functional; settings: time 16-20 hrs
[31] = system: Pseudomonas aeruginosa; assay: Antibacterial activity against carbapenem-resistant Pseudomonas aeruginosa clinical isolate ets5 assessed as inhibition of bacterial growth incubated for 24 hrs by CLSI protocol based broth microdilution method; format: functional
[32] = system: Cell membrane; assay: Disruption of cell membrane integrity in Pseudomonas aeruginosa ATCC 27853 assessed as morphological changes at 16 microg/ml incubated for 2 hrs by scanning electron microscopic analysis; settings: dose 16.0 µg/ml
[33] = system: Pseudomonas aeruginosa; assay: Antibacterial activity against carbapenem-resistant Pseudomonas aeruginosa clinical isolate ets6 assessed as inhibition of bacterial growth incubated for 24 hrs by CLSI protocol based broth microdilution method; format: functional
[34] = system: Klebsiella pneumoniae; assay: Antibacterial activity against carbapenem-resistant Klebsiella pneumoniae clinical isolate KPN+19-15 assessed as inhibition of bacterial growth incubated for 16 to 20 hrs by CLSI protocol based broth microdilution method; format: functional; settings: time 16-20 hrs

CC(C)CCCCC(=O)N[C@@H](CCN)C(=O)N[C@H](C(=O)N[C@@H](CN)C(=O)N[C@H]1CCNC(=O)[C@H]([C@@H](C)O)NC(=O)[C@H](CCN)NC(=O)[C@H](CCN)NC(=O)[C@H]([C@@H](C)O)NC(=O)[C@@H](Cc2ccccc2)NC(=O)[C@H](CCN)NC1=O)[C@@H](C)O ({Heptanoyl(6-Me)}-[Dab]T[Dap][Dab][Dab][dF]T[Dab][Dab]T; lactam 4-C)
Activity [1]: 100% | AUC(0-inf) [2]: 8280 ng·h/mL | MIC [3]: 0.06 µg/mL (≈ 0.0516 µM) | MIC [4]: 0.06 µg/mL (≈ 0.0516 µM) | MIC [5]: ≤ 0.06 µg/mL | MIC [6]: < 0.06 µg/mL | MIC [7]: ≤ 0.06 µg/mL | Activity [8]: Non-toxic | MIC [9]: 0.5 µg/mL (≈ 0.43 µM) | ED50 [10]: 0.32 mg/kg | MIC [11]: 0.25 µg/mL | MIC [12]: 0.25 µg/mL (≈ 0.215 µM) | Activity [13]: Non-toxic | MIC [14]: 16 µg/mL | survival at 3 mg/kg [15]: 100% | MIC [16]: 1 µg/mL (≈ 0.86 µM) | MIC [17]: < 0.06 µg/mL | Activity [18]: Non-toxic | Activity [19]: Active | ED50 [20]: 0.38 mg/kg | C0 at 24 h [21]: 9810 ng/mL | MIC [22]: 0.125 µg/mL (≈ 0.107 µM) | MIC [23]: 0.5 µg/mL (≈ 0.43 µM) | ED50 [24]: 1.86 mg/kg | MIC [25]: 2 µg/mL (≈ 1.72 µM) | MIC [26]: 1 µg/mL (≈ 0.86 µM) | MIC [27]: 0.5 µg/mL (≈ 0.43 µM) | MIC [28]: 1 µg/mL (≈ 0.86 µM) | MIC [29]: 0.5 µg/mL (≈ 0.43 µM) | MIC [30]: ≤ 0.03 µg/mL | MIC [31]: 1 µg/mL (≈ 0.86 µM) | Activity [32]: Active | MIC [33]: 1 µg/mL (≈ 0.86 µM) | MIC [34]: ≤ 0.03 µg/mL
